Assay results published in article PMC11267565, “Glutathione-Based Photoaffinity Probe Identifies Caffeine as a Positive Allosteric Modulator of the Calcium-Sensing Receptor” (ACS Chemical Biology, 2024).

Assays:
[1] = molecular target: T1, calcium-sensing receptor (CaSR) (Homo sapiens, UniProt P41180); test: concentration-dependent competition with DAZ-G photo-conjugation in cells; type: cell-based; design: FLAG-CaSR
T1 sequence (P41180 20-1078): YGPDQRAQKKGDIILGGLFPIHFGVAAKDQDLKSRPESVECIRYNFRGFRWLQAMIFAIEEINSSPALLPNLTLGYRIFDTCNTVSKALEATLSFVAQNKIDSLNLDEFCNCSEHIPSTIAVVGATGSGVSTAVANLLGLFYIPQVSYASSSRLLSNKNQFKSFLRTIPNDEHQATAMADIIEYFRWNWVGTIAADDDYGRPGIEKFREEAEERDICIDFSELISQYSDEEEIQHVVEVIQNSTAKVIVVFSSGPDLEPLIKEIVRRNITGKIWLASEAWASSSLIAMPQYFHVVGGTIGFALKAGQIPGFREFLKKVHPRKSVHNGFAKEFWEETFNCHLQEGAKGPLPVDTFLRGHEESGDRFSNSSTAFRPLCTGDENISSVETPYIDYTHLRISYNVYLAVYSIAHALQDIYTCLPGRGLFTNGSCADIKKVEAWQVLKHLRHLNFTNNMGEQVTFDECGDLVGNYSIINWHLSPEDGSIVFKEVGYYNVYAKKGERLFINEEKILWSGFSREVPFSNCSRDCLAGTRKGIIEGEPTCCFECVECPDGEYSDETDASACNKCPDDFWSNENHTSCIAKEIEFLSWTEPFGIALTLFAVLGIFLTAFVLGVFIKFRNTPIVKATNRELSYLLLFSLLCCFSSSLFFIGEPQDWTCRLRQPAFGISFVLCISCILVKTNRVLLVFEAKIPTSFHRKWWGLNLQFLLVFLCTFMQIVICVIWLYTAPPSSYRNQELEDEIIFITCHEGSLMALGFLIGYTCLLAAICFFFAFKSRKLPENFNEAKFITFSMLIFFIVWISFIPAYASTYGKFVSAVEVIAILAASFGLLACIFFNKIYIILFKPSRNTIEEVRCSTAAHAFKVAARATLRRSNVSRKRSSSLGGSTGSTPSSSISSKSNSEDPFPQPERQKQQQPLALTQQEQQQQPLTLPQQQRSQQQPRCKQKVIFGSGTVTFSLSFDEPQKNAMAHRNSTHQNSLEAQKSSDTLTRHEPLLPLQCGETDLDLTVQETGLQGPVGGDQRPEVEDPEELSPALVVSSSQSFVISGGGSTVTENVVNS

[2] = molecular target: T1, calcium-sensing receptor (CaSR); test: Cal-520 Ca2+ flux in HEK293-CaSR cells (EC50); competition with DAZ-G photo-conjugation; E837A and S170A mutants; type: cell-based

Row | Structure (SMILES) | concentration-dependent competition with DAZ-G photo-conjugation in cells [1] | EC50 [2]
1 | N[C@@H](Cc1ccccc1)C(=O)O [L-Phe] | L-Phe, a prototype ligand for ABS, induced concentration-dependent competition to DAZ-G | –
2 | Cn1c(=O)c2c(ncn2C)n(C)c1=O [caffeine] | – | 3.35 µM
